{"source": "patent US20220308044A1", "about": "“NOVEL LIVE-CELL ASSAY FOR NEURONAL ACTIVITY” (UNIVERSITY OF UTAH RESEARCH FOUNDATION, priority 2019, published 2022)", "molecules": {"B1": {"name": "BDNF: a neurotropic factor that enhances synapse formation and transmission (protein, UniProt P23560 19-247, looked up)", "Neurotrophic factor BDNF …": "APMKEANIRGQGGLAYPGVRTHGTLESVNGPKAGSRGLTSLADTFEHVIEELLDEDQKVRPNEENNKDADLYTSRVMLSSQVPLEPPLLFLLEEYKNYLDAANMSMRVRRHSDPARRGELSVCDSISEWVTAADKKTAVDMSGGTVTVLEKVPVSKGQLKQYFYETKCNPMGYTKEGCRGIDKRHWNSQCRTTQSYVRALTMDSKKRIGWRFIRIDTSCVCTLTIKRGR"}}, "key": {"[1]": {"tested_on": "WT neurons", "experiment": "Secreted Neuronal Activity Reporter (SNAR) dual secreted luciferase assay in primary neuronal cultures", "assay_type": "cell-based, mouse", "conditions": "for effect of individual inhibitors on SNAR activity: prolonged treatment, FIG. 3A"}, "[2]": {"tested_on": "CamKII neurons", "experiment": "Cre-dependent (floxed) SNAR assay with CamKII:Cre", "assay_type": "cell-based, mouse", "conditions": "FIG. 6C", "experimental": "Plasmid Cloning. The SNAR construct was synthesized by first introducing 2 core SARE (cSARE) sequences into an AAV vector backbone that included the Arc minimal promoter and the Gaussia luciferase coding sequences using inFusion cloning. A single cSARE sequence was synthesized using a long primer that was then used as a PCR template. Two additional cSARE sequences were then added, one at a time preceding the first 2 cSAREs. The entire 4× cSARE-ArcMin-Gluc was then cloned as an insert into an FCK vector (Addgene, Watertown, Mass.; catalog no. 51694) using restriction enzymes PacI and EcoRI for use as a transfer plasmid and packaging into lentivirus particles. Secreted Nanoluciferase (sNluc) was obtained by adding the Ig-kappa signal peptide to its N-terminus using a long primer. sNluc was then inserted into an FCK vector with the hPGK promoter. Each construct was then cloned into a DIO vector backbone (Addgene, Watertown, Mass.; catalog no. 87168) to obtain a Cre-dependent expression construct. […]\nLuciferase Assays. To determine luciferase activity luminescencence from media samples was measured. […] For substrates, Coelenterazine (CTZ)-native (NanoLight Technology, Pinetope, Ariz.; catalog no. 303) and FMZ (Promega NanoGlo Assay; Promega, Madison, Wis.; catalog no. N1110) were added using a micro-injector connected to the plate reader (BioTek Synergy HT; Winooski, Vt.). […]"}}}
{"molecule": "NC(CCCP(=O)(O)O)C(=O)O", "note": "(centres unmarked) [AP5]", "values": [{"measurement": "effect of individual inhibitors on SNAR activity", "setting": "[1]", "result": "dramatically suppressed SNAR activity"}, {"measurement": "effect on reporter accumulation", "setting": "[2]", "result": "decrease in reporter accumulation similar to that of the non-specific reporter"}]}
{"molecule": "NC(=O)N1c2ccccc2C=Cc2ccccc21", "note": "[CBZ, carbamazepine]", "values": [{"measurement": "effect on SNAR", "setting": "[1]; 50 μM, FIG. 4A", "result": "reduced SNAR"}]}
{"molecule": "N#Cc1cc2[nH]c(=O)c(=O)[nH]c2cc1[N+](=O)[O-]", "note": "[CNQX]", "values": [{"measurement": "time after treatment at which the increase in SNAR activity was observed", "setting": "[1]; kinetic analysis, chronic blockage of AMPAR-mediated transmission, FIG. 3B", "result": "16 to 40", "unit": "h"}, {"measurement": "effect of individual inhibitors on SNAR activity", "setting": "[1]", "result": "increased SNAR activity"}]}
{"molecule": "N#CC(=C(/N)Sc1ccccc1N)/C(C#N)=C(\\N)Sc1ccccc1N", "note": "[U0126]", "values": [{"measurement": "effect on SNAR activity / accumulation", "setting": "[1]", "result": "significantly suppressed SNAR accumulation"}]}
{"molecule": "O=C1NC(=O)C(c2ccccc2)(c2ccccc2)N1", "note": "[phenytoin]", "values": [{"measurement": "effect on reporter activity", "setting": "[1]; 80 μM, at DIV14, FIG. 4A", "result": "significantly reduced reporter activity"}]}
{"molecule": "B1", "values": [{"measurement": "effect on reporter activity compared to a vehicle control", "setting": "[1]; 50 ng/mL, 16 hours and 40 hours after the treatment, FIG. 4B", "result": "significantly and robustly increased reporter activity"}]}
